Measurements as given in US20090192142A1, “USE OF CARBAMAZEPINE DERIVATIVES FOR THE TREATMENT OF AGITATION IN DEMENTIA PATIENTS” (priority 2004, published 2009).

Tested on: community-dwelling elderly patients diagnosed with Alzheimer's disease (behavioral agitation)
Test: 8-week, open-label, single-arm study of oxcarbazepine for behavioral agitation in Alzheimer's disease patients
Assay type: in vivo, human
Settings: for change from baseline in Cohen-Mansfield Agitation Inventory (CMAI) score (mean±SD): baseline 60.6±14.7, mean oxcarbazepine daily dose 340 mg/day (range 150-552 mg/day), p≦0.0002
Experimental: In an 8-week, open-label, single-arm study are recruited twenty-six patients community-dwelling elderly patients (>63 years of age) diagnosed with Alzheimer's disease. After a 1-week screening period to assess each patient's agitation level, oxcarbazepine 150 mg/day treatment is initiated and titrated by 150 mg/day every 3-7 days to a maximum of 1200 mg/day with a mean oxcarbazepine daily dose of 340 mg/day (range 150-552 mg/day). The primary outcome measure is improvement in behavioral agitation, based on the 38-item Cohen-Mansfield Agitation Inventory (CMAI) that evaluates the prevalence of pathologic and disruptive agitated behavior. Secondary evaluations include effects on neuropsychiatric symptoms, cognitive impairment, global functioning, and tolerability.
Significant reductions in CMAI score from baseline (mean±SD: 60.6±14.7) occur at each time point (mean±SD change from baseline on Day 14: −16.9±19.7, Day 28: −22.6±19.0, Day 56: −20.8±19.6; all p≦0.0002). […] Cognitive performance and global functioning remain stable throughout the study.

[1] = patients with Alzheimer's disease, open-label prospective study

Q: For NC(=O)N1c2ccccc2CC(=O)c2ccccc21 [oxcarbazepine, 10-oxo-10,II-dihydro-5H-dibenz(b,f)azepine-5-carboxamide], which “change from baseline in Cohen-Mansfield Agitation Inventory (CMAI) score (mean±SD)” value (“change from baseline … (mean±SD)” for short) (Day 14) is on record?
A: −16.9±19.7

Q: What about the “change from baseline … (mean±SD)” value (Day 28) of the same molecule?
A: −22.6±19.0

Q: And the “change from baseline … (mean±SD)” value (Day 56)?
A: −20.8±19.6

Q: And the “mean Neuropsychiatric Inventory score” value (each time point, all p≦0.02 versus screening)?
A: Significant improvement

Q: And the “efficacy in the treatment of agitation” value [1]?
A: effective

Q: What about the tolerability [1] of the same molecule?
A: generally well tolerated

Q: What about the cognitive performance (throughout the 8-week study) of the same molecule?
A: remain stable

Q: And the global functioning (throughout the 8-week study)?
A: remain stable
